Measurements taken from patent US12590130B2, “Bipartite molecules and uses thereof in treating diseases associated with abnormal protein aggregates” (ACADEMIA SINICA, priority 2014, dated 2026).
Square brackets hold non-standard residues; d marks the D form. Ends that are not written are not given here. Peptide text beside a SMILES is read from it. * marks the point of attachment. Cbz = O=C(OCc1ccccc1)*

Assays:
109QmHtt [1] = experiment: Western blot of RIPA-soluble and -insoluble fractions of Neuro2a lysates; format: cell-based; conditions: all groups
Protocol: (§1) FIG. 4. Testing the ability of therapeutic peptides to decrease mHtt aggregation in Neuro2a cells overexpressing mHtt. Panel A: Filter trap assays and corresponding quantitation of cells (panel B) treated as indicated at 8 hours (T1), 24 hours (T2), or both (T1+2) after transfection with the 109QmHtt construct. […] Panel C: Western blots and quantitation (panel D) of RIPA-soluble (sol) and -insoluble (ins) fractions of Neuro2a cells overexpressing 25QHtt or 109QmHtt and treated as indicated. […] Panel E: Western blot of the 109QmHtt in cells treated as indicated. Note that MG132 blocked the effect of 8R10Q peptide with respect to decreasing insoluble 109QmHtt. Panel F: Quantitation of ratio of 109QmHtt in cells treated MG132 (+) over DMSO (−) in relationship to peptides. Statistical analysis conducted with one way ANOVA, *<0.05, **<0.01, ***<0.001, ns: not significant.
For further characterization, Neuro2a lysates were separated into the RIPA-soluble (sol) and insoluble (ins) fractions ([…]). 8R10Q peptide decreased the level of mHtt in both the soluble and insoluble fractions as compared with water, 8R, or the scrambled (s8R10Q) control (FIG. 4, panel D). […]

[2] = system: Mouse N2a neuroblastoma cells
Protocol: Cell viability measurement by MTT assays. […] Each bar was generated by a triplicate experiment; the study was repeated 3 times. The statistics were performed with one way ANOVA corrected with Fisher's LSD test. ***: p<0.001; ****p<0.0001; ns, not significant.
Cell viability assay. The viability of mouse N2a cells incubated with the indicated peptide(s) was measured using the MTT assay.
Mouse N2a neuroblastoma cells (ATCC) were cultured in Dulbecco's modified Eagle's medium (DMEM) (HyClone, USA) supplemented with 10% fetal bovine serum (FBS; HyClone, USA) in 5% CO2 at 37° C. For the cell viability assay, the cells were harvested, suspended at a density of 350,000 cells/mL in DMEM, and 100 μL of each sample was plated in each well of a 96-well CellBIND polystyrene microplate (Corning, USA). […] Cell viability was determined using the MTT (3-[4,5-dimethylthiazol-2-yl]-2,5-diphenyltetrazolium bromide) toxicity assay. […] Ten microliters of 5 mg/mL of MTT in PBS was added to each well, and then, after incubation for 4 h, the medium was removed and the MTT crystals were dissolved in 100 μL of 90% isopropanol, 0.5% SDS, and 40 mM HCl, and their absorption at 570 nm was measured. Cell viability was calculated by dividing the absorbance of the wells containing peptide samples by that of the wells without any added peptide. […]

109QmHtt aggregates = experiment: TIRF microscopy of mHtt aggregates in Neuro2a cells; format: cell-based; conditions: Neuro2a cells expressing 109QmHtt
Protocol: FIG. 3. Diagrams showing the co-localization of tested bipartite peptides with the 109QmHtt aggregates. Panel A: Structure of TAMRA-labeled 8R10Q used in this study. Panel B: Epifluorescence micrographs of Neuro2a cells expressing 109QmHtt treated with TAMRA-8R10Q (8R10Q) at various time points. Note the co-localization of 8R10Q and 109QmHttGFP aggregates (GFP) from 8-24 hours (arrows). Scale bar: 10 μm. Panel C: TIRF micrographs of the Neuro2a expressing 109QmHtt treated with water or peptides as indicated at various time points. Note the decrease in aggregate size in 8R10Q and 8R15Q-treated cells. Panel D: Quantitation of the size of individual aggregates in Neuro2a at 8 hours (left) and 24 hours (right) after peptide treatment. […] Panel E: Quantitation of the number of aggregates in 20 Neuro2a cells at 12 hours (left) and 24 hours (right) after peptide treatment. Both the 8R10Q and 8R15Q increased the number of aggregates. Statistics performed with one way ANOVA. **p<0.01; ***p<0.001.
To probe into the details of the effect of peptide on the mHtt aggregates, the parameters of the mHtt aggregates were visualized and measured using the Total Internal Reflection Fluorescence (TIRF) microscopy. […] The number of aggregates in 20 cells was also calculated. 8R10Q and 8R15Q increased the number of the aggregates by 4-5 fold (FIG. 3, panel E).

[3] = Solubility of therapeutic peptides; format: physicochemical
Protocol: (§2) In this study, the rational design was tested for HD. Several bipartite therapeutic peptides containing 8 consecutive arginines (8R) attached to a stretch of consecutive glutamines (polyQ) were synthesized and their biological activity of decreasing the aggregation propensity of the mHtt protein was investigated. The length of the polyQ of these bipartite peptides was 5 (8R5Q), 10 (8R10Q), 15 (8R15Q) or 20 (8R20Q) (Table 2).

[4] = system: Neuro2a cells expressing 109QmHtt; experiment: Retinoic acid-induced neurite outgrowth; format: cell-based, mouse; conditions: 109QmHtt cells; vs water or scrambled control
Protocol: FIG. 5. Therapeutic effect of 8R10Q and 8R15Q in 109QmHtt-expressing cells. Panel A: Cell viability assay by MTT in Neuro2a cells expressing 25QHtt (left) or 109QmHtt (right) treated with H2O2 at 50 μM and the indicated peptide. Panel B: Cell growth curve of Neuro2a cells expressing 25QHtt or 109QmHtt treated with indicated peptide. The cells in right subpanel were further treated with H2O2 at 12.5 μM 16 hours after transfection. 109QmHtt cells growth was slower than that of the 25QHtt cells. 8R10Q treatment rescued the slow growth of Neuro2a cells by 109QmHtt with or without H2O2. Panel C: Micrographs of the phase contrast and fluorescent images of retinoic acid-differentiated Neu2a cells expressing GFP-25QHtt or GFP-109QmHtt (GFP) treated with the indicated peptide. Note the neurites of the differentiated cells. Panel D: Quantitation of the percentage of differentiated cells with neurites. Fewer 109QmHtt-expressing cells had neurites vs. 25QHtt-expressing cells. […] The experiments were conducted in triplicate and repeated twice. Statistical analysis was performed with one way ANOVA, *p<0.05; **p<0.01; ***p<0.001, ns: not significant.
Retinoic acid (RA) induced the differentiation of Neuro2a cells with neurite outgrowth. 109QmHtt decreased the number of cells bearing RA-induced neurites relative to 25QHtt (FIG. 5, panels C and D).

[5] = Stability of therapeutic peptides determined by HPLC; format: physicochemical; conditions: day 0 to day 28
Protocol: FIG. 2. Stability of the therapeutic peptides determined by HPLC. A: diagrams showing the retention time of the tested peptides from day 0 to day 28. B: charts showing the amount of the tested peptides at day 0 and day 28.
as §2

109QmHtt [6] = experiment: Filter trap assay of aggregated 109QmHtt in Neuro2a cells; format: cell-based
Protocol: as §1
Whether the peptides could modulate the aggregation propensity of mHtt was next investigated.

| Compound | average size of the aggregates (109QmHtt aggregates) | Solubility (DMEM/10% FBS) [3] | solubility in water or culture medium [3] | further results |
| --- | --- | --- | --- | --- |
| CC(C)C[C@@H](C=O)NC(=O)[C@H](CC(C)C)NC(=O)[C@H](CC(C)C)NC(=O)OCc1ccccc1 [MG132, reference compound] (Cbz-Leu-Leu-Leu-aldehyde) |  |  |  | level of mHtt after MG132 treatment (109QmHtt [1]): increased |
| CC[C@H](C)[C@H](NC(=O)[C@H](C)NC(=O)CNC(=O)[C@H](CCCCN)NC(=O)[C@H](CC(N)=O)NC(=O)[C@H](CO)NC(=O)CNC(=O)[C@@H](CCCNC(=N)N)NC(=O)[C@@H](CCCNC(=N)N)NC(=O)[C@@H](CCCNC(=N)N)NC(=O)[C@@H](CCCNC(=N)N)NC(=O)[C@@H](CCCNC(=N)N)NC(=O)[C@@H](CCCNC(=N)N)NC(=O)[C@@H](CCCNC(=N)N)NC(=O)[C@H](N)CCCNC(=N)N)C(=O)N[C@H](C(=O)NCC(=O)N[C@@H](CC(C)C)C(=O)N[C@@H](CCSC)C(N)=O)[C@@H](C)CC [^DR8-Aβ(25-35)] (H-[dR][dR][dR][dR][dR][dR][dR][dR]GSNKGAIIGLM-NH2; N-terminus assumed) |  |  |  | viability of Neuro2a cells treated with peptide alone [2]: no detectable toxicity |
| H-RQQRRQQDQRQWQRQRQQRR-NH2 [s8R10Q, reference compound] | 1.7 μm^2 | Soluble |  |  |
| H-RRRRRRRRWD-NH2 [Peptide 8R, NH2-(R)8-W-D-CONH2, reference compound] | 3.3 μm^2 | Soluble |  | RA-induced neurite outgrowth [4]: rescued the cells from this toxicity to some extent |
| H-RRRRRRRRWDQQQQQ-NH2 [Peptide 8R5Q, NH2-(R)8-W-D-(Q)5-CONH2] |  | Soluble | highly soluble |  |
| H-RRRRRRRRWDQQQQQQQQQQQQQQQ-NH2 [Peptide 8R15Q, NH2-(R)8-W-D-(Q)15-CONH2] | 0.2 μm^2 | aggregated | partially soluble | change in retention time and amount during HPLC analysis [5]: time-dependent decrease in the retention time and amount; aggregated 109QmHtt by filter trap assay (109QmHtt [6]; 20 μM peptide added at 8 hours (T1) or 8 plus 24 hours (T1+T2) after transfection, vs water or 8R): significantly reduced; aggregated 109QmHtt by filter trap assay (109QmHtt [6]; peptide added at 24 hours alone): no obvious effects |
| H-RRRRRRRRWDQQQQQQQQQQQQQQQQQQQQ-NH2 [Peptide 8R20Q, NH2-(R)8-W-D-(Q)20-CONH2] |  | aggregated | insoluble | change in retention time and amount during HPLC analysis [5]: time-dependent decrease in the retention time and amount |
| RRRRRRRRGSNKGAIIGLM-NH2 [R8-Aβ(25-35)] |  |  |  | viability of Neuro2a cells treated with peptide alone [2]: no detectable toxicity |
| TAMRA-NH-(R)8-W-D-CONH2 [TAMRA-8RWD, reference compound] |  | Soluble |  |  |
| TAMRA-NH-RQQRRQQDQRQWQRQRQQRR-CONH2 ({TAMRA}-RQQRRQQDQRQWQRQRQQRR-NH2) [TAMRA-s8R10Q, reference compound] |  | Soluble |  |  |
